Experimental data: patent US11426405B2, “Inhibition of JAK-STAT signaling inhibits formation of neutrophil extracellular traps (NETs)” (The Brigham and Women's Hospital, Inc., priority 2017, dated 2022)
Where “and” joins values, the source holds several entries; their conditions need not be identical. Equal values may be shown once.

B1: DNase: deoxyribonuclease (DNase; Pulmozyme, Genentech), disrupts NET structures (protein, UniProt P24855 23-282, looked up)
Deoxyribonuclease-1: LKIAAFNIQTFGETKMSNATLVSYIVQILSRYDIALVQEVRDSHLTAVGKLLDNLNQDAPDTYHYVVSEPLGRNSYKERYLFVYRPDQVSAVDSYYYDDGCEPCGNDTFNREPAIVRFFSRFTEVREFAIVPLHAAPGDAVAEIDALYDVYLDVQEKWGLEDVMLMGDFNAGCSYVRPSQWSSIRLWTSPTFQWLIPDSADTTATPTHCAYDRIVVAGMLLRGAVVPDSALPFNFQAAYGLSDQLAQAISDHYPVEVMLK

Columns and labels:
[1] = test system: neutrophils from patients with MPNs; test: NET formation in neutrophils from MPN patients receiving a JAK inhibitor; type: cell-based, human; conditions: individual JAK inhibitor-treated MPN patients; 4 μM ionomycin stimulation; some patients also on ASA or Hydrea
Description: Whole blood was collected into ethylenediaminetetraacetic acid (EDTA)-coated tubes. Patients and controls were excluded if they had conditions that are known or suspected to affect NET formation such as active infection, active cancer (37), history of an autoimmune disease (38), treatment with immunosuppressive or anti-inflammatory drugs or history of diabetes (29). In addition, patients with recent history of infection, trauma or surgery (3 months before blood draw) were excluded. Therapy with acetylsalicylic acid (aspirin), hydroxyurea or anagrelide was allowed. […]
Neutrophil isolation and NET formation were carried out as previously described (39). […] Purity of cells was >95% as determined by Wright-Giemsa staining (FIG. 5B). For the screening NET assay, NET-bound neutrophil elastase was quantified using an available commercial kit according to manufacturer's instructions (Cayman chemical). […]
Fixed cells were processed as detailed above. Immunostaining, fluorescence microscopy and NET quantification procedures were similar for human and mouse specimens. […]
Images were acquired on an Axiovert 200M wide-field fluorescence microscope (Zeiss) coupled to an AxioCam MR3 monochromatic CCD camera (Zeiss) using a Zeiss Plan-Neofluar 20×/0.4 Con Ph2 objective lens with the Zeiss AxioVision software (version 4.6.3.0). […]

[2] = test system: Jak2^WT and Jak2^V617F mice; test: Venous stenosis model: partial ligation of the inferior vena cava; type: in vivo, mouse; conditions: for Thrombus formation rate (clots/mice): DNase 50 μg i.p. and 10 μg i.v. after surgery
Method: Sections were allowed to come to room temperature, before rinsing in PBS with 0.1% Tween 20 (PBST). Sections were blocked for 1 hour at room temperature with 10% FBS in PBST in a humidified chamber. Sections were incubated in the same chamber overnight at 4° C. with the primary antibodies described above against Ly6G and H3^cit in 10% FBS in PBST. Slides were rinsed in PBST before incubating with the secondary antibody under the same conditions as used for the primary antibody (goat anti-rat Ig (IgG) (Alexa555, 1.5 μg/mL) or donkey anti-rabbit IgG (Alexa647, 1.5 μg/mL). After a further wash in PBST sections were stained with DAPI and mounted as described above. Sections were visualized using Axiolmager D1 (Carl Zeiss Microscopy) and images taken using Axiocam MRc Camera (Carl Zeiss Microscopy). Zen software 2.3 (version 13) was used to analyze images. For the final images used in the figures, Alexa647 was represented using green.
After bone marrow harvest, c-Kit positive marrow cells were obtained from VavCre/Jak2^V617F KI mice using CD117 Microbeads according to manufacturer's instructions (Miltenyi Bitotec).
DNase 1 (Pulmozyme, Genentech) was diluted in sterile saline and injected immediately after surgery (50 μg intraperitoneally and 10 μg intravenously via tail vein). […] Mice were assessed for thrombosis at 4 hours.

| Molecule | % NET formation [1] | Thrombosis rate at 2 hours post-IVC ligation ([2]; Jak2^V617F mice, ruxolitinib 90 mg/kg twice a day for 72 hours, vehicle 45%) | Thrombosis rate at 4 hours post-IVC ligation ([2]; Jak2^V617F mice, ruxolitinib 90 mg/kg twice a day for 72 hours, vehicle 71%) | Thrombus formation rate (clots/mice) ([2]; Jak2^V617F mice, vehicle 5/7, p=0.007) | Thrombus formation rate (clots/mice) ([2]; Jak2^WT mice, vehicle 5/8, p=0.06) |
| --- | --- | --- | --- | --- | --- |
| C[C@H](Nc1cc(-c2cnn(C)c2)cc(Nc2cnccn2)n1)c1ccc(F)cc1 [NS-018] | 6.9% |  |  |  |  |
| N#CC[C@H](C1CCCC1)n1cc(-c2ncnc3[nH]ccc23)cn1 [Ruxolitinib] | 1.5% and 5.9% and 5.4% and 5.5% | 0% | 21% |  |  |
| B1 |  |  |  | 0/8 | 1/7 |
